Laboratory results taken from PubChem BioAssay (NCI).
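Following 48 hours of exposure in 96-well plates, responses at five concentrations were used to interpolate endpoints linearly. At the GI50, growth is halved. Definition used: TGI = concentration required for complete inhibition of growth.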

Experiments:
Assay in all cases: inhibition of tumour cell growth, NCI panel, 48 h
NCI-H226 lung = test system: NCI-H226 lung
CAKI-1 renal = test system: CAKI-1 renal
OVCAR-8 ovarian = test system: OVCAR-8 ovarian
NCI-H23 lung = test system: NCI-H23 lung
MDA-MB-231 breast = test system: MDA-MB-231 breast
OVCAR-4 ovarian = test system: OVCAR-4 ovarian
HS 578T breast = test system: HS 578T breast
TK-10 renal = test system: TK-10 renal
OVCAR-3 ovarian = test system: OVCAR-3 ovarian
SK-MEL-2 melanoma = test system: SK-MEL-2 melanoma
NCI/ADR-RES ovarian = test system: NCI/ADR-RES ovarian
COLO 205 colon = test system: COLO 205 colon
MALME-3M melanoma = test system: MALME-3M melanoma
U251 CNS = test system: U251 CNS
SK-OV-3 ovarian = test system: SK-OV-3 ovarian
HOP-62 NSCLC = test system: HOP-62 NSCLC
K-562 leukemia = test system: K-562 leukemia
MCF7 breast = test system: MCF7 breast
NCI-H522 lung = test system: NCI-H522 lung
PC-3 prostate = test system: PC-3 prostate
IGROV1 ovarian = test system: IGROV1 ovarian
786-0 renal = test system: 786-0 renal
M14 melanoma = test system: M14 melanoma
CCRF-CEM leukemia = test system: CCRF-CEM leukemia
HT29 colon = test system: HT29 colon
SK-MEL-28 melanoma = test system: SK-MEL-28 melanoma
A549 NSCLC = test system: A549 NSCLC
T-47D breast = test system: T-47D breast
UO-31 renal = test system: UO-31 renal
MOLT-4 leukemia = test system: MOLT-4 leukemia
NCI-H460 lung = test system: NCI-H460 lung
SN12C renal = test system: SN12C renal
LOX IMVI melanoma = test system: LOX IMVI melanoma
HOP-92 NSCLC = test system: HOP-92 NSCLC
RPMI-8226 leukemia = test system: RPMI-8226 leukemia
DU-145 prostate = test system: DU-145 prostate
BT-549 breast = test system: BT-549 breast
UACC-62 melanoma = test system: UACC-62 melanoma
HCT-15 colon = test system: HCT-15 colon
KM12 colon = test system: KM12 colon
SNB-75 CNS = test system: SNB-75 CNS
SW-620 colon = test system: SW-620 colon
HL-60(TB) leukemia = test system: HL-60(TB) leukemia
SF-295 CNS = test system: SF-295 CNS
HCC-2998 colon = test system: HCC-2998 colon
RXF 393 renal = test system: RXF 393 renal
HCT-116 colon = test system: HCT-116 colon
SF-539 CNS = test system: SF-539 CNS
OVCAR-5 ovarian = test system: OVCAR-5 ovarian
ACHN renal = test system: ACHN renal
SF-268 CNS = test system: SF-268 CNS
SNB-19 CNS = test system: SNB-19 CNS
MDA-MB-435 = test system: MDA-MB-435
A498 renal = test system: A498 renal
SK-MEL-5 melanoma = test system: SK-MEL-5 melanoma
SR leukemia = test system: SR leukemia
UACC-257 melanoma = test system: UACC-257 melanoma

## COc1ccc2c(c1)C(c1ccccc1Cl)=Nc1c(n[nH]c1C)N2
NCI-H226 lung
  GI50: 3.28 µM
  TGI: > 25 µM
CAKI-1 renal
  GI50: > 8.82 µM
  TGI: > 25 µM
OVCAR-8 ovarian
  GI50: > 25 µM
  TGI: > 25 µM
NCI-H23 lung
  GI50: 22.6 µM
  TGI: > 25 µM
MDA-MB-231 breast
  GI50: > 25 µM
  TGI: > 25 µM
OVCAR-4 ovarian
  GI50: > 25 µM
  TGI: > 25 µM
HS 578T breast
  GI50: 3.43 µM
  TGI: 20.3 µM
TK-10 renal
  GI50: > 25 µM
  TGI: > 25 µM
OVCAR-3 ovarian
  GI50: > 25 µM
  TGI: > 25 µM
SK-MEL-2 melanoma
  GI50: > 11.2 µM
  TGI: > 23.4 µM
NCI/ADR-RES ovarian
  GI50: > 25 µM
  TGI: > 25 µM
COLO 205 colon
  GI50: 11.7 µM
  TGI: > 25 µM
MALME-3M melanoma
  GI50: > 25 µM
  TGI: > 25 µM
U251 CNS
  GI50: 5.74 µM
  TGI: > 25 µM
SK-OV-3 ovarian
  GI50: > 25 µM
  TGI: > 25 µM
HOP-62 NSCLC
  GI50: > 25 µM
  TGI: > 25 µM
K-562 leukemia
  GI50: > 25 µM
  TGI: > 25 µM
MCF7 breast
  GI50: 13.7 µM
  TGI: > 25 µM
NCI-H522 lung
  GI50: > 20 µM
  TGI: > 25 µM
PC-3 prostate
  GI50: > 22.7 µM
  TGI: > 25 µM
IGROV1 ovarian
  GI50: > 25 µM
  TGI: > 25 µM
786-0 renal
  GI50: > 18.6 µM
  TGI: > 25 µM
M14 melanoma
  GI50: > 25 µM
  TGI: > 25 µM
CCRF-CEM leukemia
  GI50: > 25 µM
  TGI: > 25 µM
HT29 colon
  GI50: > 18.7 µM
  TGI: > 25 µM
SK-MEL-28 melanoma
  GI50: > 25 µM
  TGI: > 25 µM
A549 NSCLC
  GI50: 12.5 µM
  TGI: > 25 µM
T-47D breast
  GI50: > 17.6 µM
  TGI: > 25 µM
UO-31 renal
  GI50: 13.9 µM
  TGI: > 25 µM
MOLT-4 leukemia
  GI50: > 25 µM
  TGI: > 25 µM
NCI-H460 lung
  GI50: 18.5 µM
  TGI: > 25 µM
SN12C renal
  GI50: > 20.3 µM
  TGI: > 25 µM
LOX IMVI melanoma
  GI50: 14.7 µM
  TGI: > 25 µM
HOP-92 NSCLC
  GI50: > 25 µM
  TGI: > 25 µM
RPMI-8226 leukemia
  GI50: > 25 µM
  TGI: > 25 µM
DU-145 prostate
  GI50: > 25 µM
  TGI: > 25 µM
BT-549 breast
  GI50: > 21.2 µM
  TGI: > 25 µM
UACC-62 melanoma
  GI50: 25 µM
  TGI: > 25 µM
HCT-15 colon
  GI50: 14 µM
  TGI: > 25 µM
KM12 colon
  GI50: 0.995 µM
  TGI: > 25 µM
SNB-75 CNS
  GI50: 3.14 µM
  TGI: > 17.3 µM
SW-620 colon
  GI50: > 16.1 µM
  TGI: > 25 µM
HL-60(TB) leukemia
  GI50: > 25 µM
  TGI: > 25 µM
SF-295 CNS
  GI50: > 25 µM
  TGI: > 25 µM
HCC-2998 colon
  GI50: > 25 µM
  TGI: > 25 µM
RXF 393 renal
  GI50: 3.7 µM
  TGI: > 25 µM
HCT-116 colon
  GI50: 11.2 µM
  TGI: > 25 µM
SF-539 CNS
  GI50: 4.95 µM
  TGI: > 18.8 µM
OVCAR-5 ovarian
  GI50: > 25 µM
  TGI: > 25 µM
ACHN renal
  GI50: > 20.5 µM
  TGI: > 25 µM
SF-268 CNS
  GI50: 12.5 µM
  TGI: > 25 µM
SNB-19 CNS
  GI50: > 25 µM
  TGI: > 25 µM
MDA-MB-435
  GI50: > 25 µM
  TGI: > 25 µM
A498 renal
  GI50: 1.88 µM
  TGI: > 25 µM
SK-MEL-5 melanoma
  GI50: > 25 µM
  TGI: > 25 µM
SR leukemia
  GI50: 10.5 µM
  TGI: > 25 µM
UACC-257 melanoma
  GI50: > 25 µM
  TGI: > 25 µM
